From patent US20260083848A1, “COMBINATION OF CAR T-CELL THERAPY WITH BTK INHIBITORS AND METHODS OF USE THEREOF” (priority 2021, published 2026)
Entries after “also recorded” stand apart in the source; their conditions may differ.

Tests used:
CART19 cells [1] = test: CART19 proliferation in co-culture with irradiated JeKo-1 cells (absolute CD3+ T cell counts by flow cytometry); assay type: cell-based, human; details: for toxicity to CART19 cells: in vitro, concentrations up to 10 μM
Procedure: CART19 proliferation in the presence of vecabrutinib was evaluated. CART19 cells were cocultured with irradiated JeKo-1 tumor cells at a 1:1 ratio for 24 hours in the presence of 1 μM or 10 μM vecabrutinib. Control co-culture was treated with DMSO vehicle only. Absolute CD3+ T cell counts were measured by flow cytometry.
CART19 cells were cocultured with irradiated JeKo-1 tumor cells at a 1:1 ratio for 24 hours in the presence of 1 μM or 10 μM. Control co-culture was treated with DMSO only. Absolute CD3+ T cell counts were measured by flow cytometry.

[2] = system: pro-inflammatory cytokines in serum; test: Phase 1 clinical trial, serum cytokine panel in patients with B cell malignancies; assay type: in vivo, human; details: oral 20.5-410 mg twice daily, 4 weeks post-treatment vs pretreatment
Procedure: Human cancer patients having B cell malignancies were administered vecabrutinib in a Phase 1 clinical trial and a cytokine panel was used to evaluate cytokine levels in serum at 4 weeks following administration. Briefly, patients in the clinical trial had Chronic Lymphocytic Leukemia (CLL)/Small Lymphocytic Lymphoma (SLL) or Non Hodgkin's lymphoma (NHL) and had failed prior standard of care therapies. NHL indications included lymphoplasmacytoid lymphoma/Waldenstrom's macroglobulinemia (LPL/WM), mantle cell lymphoma (MCL), marginal zone lymphoma (MZL), diffuse large B-cell lymphoma of the activated B-cell subtype (DLBCL-ABC), and follicular lymphoma (FL). A group of 39 patients were orally administered a dose of 20.5 mg, 41 mg, 82 mg, 164 mg, 246 mg, 328 mg, or 410 mg of vecabrutinib as a capsule twice daily. Serum samples were collected from the patients prior to the start of treatment as 4-weeks post-treatment and analyzed by 38-multiplex (Millipore).

[3] = system: CD19-expressing JeKo-1 tumor cells; test: CART19-mediated killing of JeKo-1 tumor cells in in vitro co-culture (bioluminescence); assay type: cell-based, human
Procedure: CART19 cells and JeKo-1 tumor cells were cultured at a 1:1 ratio for 24 hours in the presence of 1 μM or 10 μM vecabrutinib. […] Control of untransduced (UTD) T cell/JeKo-1 co-culture in the presence of 1 μM or 10 μM vecabrutinib was used to determine any tumor cell killing induced by vecabrutinib in the absence of CART19 cells. The percentage of tumor cell killing was measured using bioluminescence imaging, with samples treated with D-luciferin prior to imaging. […] Control co-culture was treated with DMSO only. The percentage of tumor cell killing was measured as described above.

wild-type BTK = wild-type BTK (Homo sapiens, UniProt Q06187); details: Aslan, et al (2021); cited from earlier work
Chain of wild-type BTK (Q06187 whole entry): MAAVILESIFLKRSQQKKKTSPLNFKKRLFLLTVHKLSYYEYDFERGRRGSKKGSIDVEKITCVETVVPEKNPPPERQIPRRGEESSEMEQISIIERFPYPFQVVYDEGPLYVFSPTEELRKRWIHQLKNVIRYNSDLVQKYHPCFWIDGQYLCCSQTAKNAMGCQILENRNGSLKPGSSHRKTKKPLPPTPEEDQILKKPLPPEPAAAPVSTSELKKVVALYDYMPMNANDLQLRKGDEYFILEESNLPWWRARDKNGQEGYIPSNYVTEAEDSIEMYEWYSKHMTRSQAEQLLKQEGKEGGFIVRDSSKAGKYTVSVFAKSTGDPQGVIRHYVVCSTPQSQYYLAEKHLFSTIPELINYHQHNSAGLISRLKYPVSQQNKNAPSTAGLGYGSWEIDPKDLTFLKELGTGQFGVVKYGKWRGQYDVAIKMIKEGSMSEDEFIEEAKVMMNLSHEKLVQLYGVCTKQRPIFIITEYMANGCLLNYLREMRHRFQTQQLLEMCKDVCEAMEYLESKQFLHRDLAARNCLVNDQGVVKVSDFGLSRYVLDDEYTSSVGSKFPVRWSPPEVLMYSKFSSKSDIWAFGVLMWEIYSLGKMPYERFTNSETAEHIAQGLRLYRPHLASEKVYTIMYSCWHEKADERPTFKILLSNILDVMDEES

mutant BTK = details: Aslan, et al (2021); cited from earlier work
[4] = system: CLL patients expressing BTK^C481S; details: Allan, et al (2019); cited from earlier work
CART19 cells [5] = test: CART19 cell degranulation (CD107α by flow cytometry) in co-culture with irradiated JeKo-1 cells; assay type: cell-based, human; details: 1 μM or 10 μM, 1:1 ratio, 4 hours; FIG. 3A
Procedure: CART19 cells were cocultured with irradiated JeKo-1 tumor cells at a 1:1 ratio for 4 hours in the presence of 1 μM or 10 μM vecabrutinib. […] Untransduced T cell/JeKo-1 co-culture treated with 1 μM or 10 μM vecabrutinib were used as a negative control as the non-antigen-specific T cells were not expected to undergo degranulation in the presence of JeKo-1 target cells. CD107α was used as a marker to quantify degranulation, as this marker becomes part of the cellular membrane and accessible to surface staining with CD107α-specific antibody in degranulating cells. Following coculture, cells were fixed, permeabilized, attained and analyzed for CD107 levels by flow cytometry.

[6] = system: JeKo-1 lymphoma xenograft; test: JeKo-1 lymphoma xenograft mouse model with CART19 cells; details: 50 mg/kg oral gavage twice daily for 4 weeks, in combination with CART19
Procedure: The impact of vecabrutinib on CART19 cell anti-tumor effects was evaluated using a JeKo-1 lymphoma xenograft mouse model. To establish the mouse model, NSG mice were inoculated with 1×10^6 luciferase^+ JeKo-1 tumor cells by intravenous injection at day −14. […] Treatment groups received either CART cells with DMSO vehicle or CART cells in combination with 50 mg/kg vecabrutinib. The control group received untransduced T cells with DMSO vehicle. Administration of vecabrutinib or vehicle commenced one day prior to CART19 administration (i.e., day −1), and was given by oral gavage. Untransduced or CART19 were infused by intravenous administration on day 0 at a dose of 1×10^6 cells per animal. Vecabrutinib and vehicle were administered by oral gavage twice daily over a period of 4 weeks. Mice were imaged weekly by IVIS to assess tumor burden. Blood samples were collected from the mice on a weekly basis and the level of circulating CART19 cells was measured by flow cytometry. Mouse weight was also measured on a weekly basis as a measure of treatment toxicity.

CART19 cells [7] = test: CART19 cell cytokine production in co-culture with JeKo-1 cells (38-multiplex of supernatants); assay type: cell-based, human; details: 1 μM or 10 μM, 1:1 ratio
Procedure: The effect of vecabrutinib treatment on CART19 cell cytokine production was also evaluated. CART19 cells were cocultured with irradiated JeKo-1 tumor cells at a 1:1 ratio for 3 days in the presence of 1 μM or 10 μM vecabrutinib. […] Untransduced T cell/JeKo-1 coculture treated with 1 μM or 10 μM vecabrutinib were used as a negative control as the non-antigen-specific T cells were not expected to undergo activation and cytokine production in the presence of JeKo-1 target cells. Supernatants were harvested and the levels of multiple cytokines and chemokines were analyzed with 38-multiplex (Millipore).

SMILES	toxicity to CART19 cells (CART19 cells [1])	serum level of IP-10 ([2]; FIG. 6A)	serum level of MIP-1β ([2]; FIG. 6B)	serum level of TNFα ([2]; FIG. 6C)	CART19-mediated killing of Jeko-1 lymphoma cells as compared to ibrutinib ([3]; 0.625.1 CART19 to tumor cell ratio, 24 hours, normalized to BTK inhibitor only, FIG. 1B)	killing of CD19-expressing JeKo-1 tumor cells ([3]; CART19:JeKo-1 1:1, 24 hours, 1 μM or 10 μM, vs DMSO control, FIG. 1A)	inhibitory activity against wild-type BTK (wild-type BTK)	CART proliferation compared to the DMSO control (CART19 cells [1]; 1 μM or 10 μM, 1:1 ratio, 24 hours, FIG. 2A)	CART19 proliferation compared to control (CART19 cells [1]; 10 μM, 1:1 ratio, 24 hours, FIG. 2A/2B)	inhibitory activity against mutant BTK (mutant BTK)	efficacy in CLL patients expressing BTK^C481S [4]	CART19 degranulation (CD107α) (CART19 cells [5])	antitumor activity (tumor burden by IVIS) compared to CART19 alone ([6]; FIG. 4A)	CART19 proliferation (circulating CART19 cells by flow cytometry) ([6]; FIG. 4B)	IL-6 in supernatant (CART19 cells [7]; FIG. 3B)	IL-10 in supernatant (CART19 cells [7]; FIG. 3C)	MIP-1β in supernatant (CART19 cells [7]; FIG. 3D)
C=CC(=O)N1CCC[C@@H](n2nc(-c3ccc(Oc4ccccc4)cc3)c3c(N)ncnc32)C1 [ibrutinib, reference compound]	toxic; also recorded: dose-dependent toxicity																
NC(=O)[C@H]1CCN(c2ncnc(N)c2F)C[C@@H]1N1CCC[C@@H](Nc2cc(Cl)cc(C(F)(F)F)c2)C1=O [vecabrutinib, (3R,3′R,4′S)-1′-(6-amino-5-fluoropyrimidin-4-yl)-3-((3-chloro-5-(trifluoromethyl)phenyl)amino)-2-oxo-[1,3′-bipiperidine]-4′-carboxamide]	well-tolerated; also recorded: not toxic	significantly decreased	significantly decreased	significantly decreased	significantly potentiated	significantly increased	maintain inhibitory activity	comparable	increased	maintain inhibitory activity	has efficacy	did not impair	sustained antitumor activity	increased	downregulation	downregulation	downregulation
